Results: paper PMC6379706, “Characterization of the interactions of chemically-modified therapeutic nucleic acids with plasma proteins using a fluorescence polarization assay” (Nucleic Acids Research, 2018)

Legend:
transferrin = target: T1, transferrin (Homo sapiens, UniProt P02787); assay: fluorescence polarization, direct titration of dye with protein; format: binding
T1 construct: gene TF; purchased from Sigma Aldrich

human serum albumin = target: T2, human serum albumin (Homo sapiens, UniProt P02768); assay: as above; format: binding
T2 construct: gene ALB; purchased human albumin, EMD Millipore (Calbiochem)
T2 sequence (P02768 25-609): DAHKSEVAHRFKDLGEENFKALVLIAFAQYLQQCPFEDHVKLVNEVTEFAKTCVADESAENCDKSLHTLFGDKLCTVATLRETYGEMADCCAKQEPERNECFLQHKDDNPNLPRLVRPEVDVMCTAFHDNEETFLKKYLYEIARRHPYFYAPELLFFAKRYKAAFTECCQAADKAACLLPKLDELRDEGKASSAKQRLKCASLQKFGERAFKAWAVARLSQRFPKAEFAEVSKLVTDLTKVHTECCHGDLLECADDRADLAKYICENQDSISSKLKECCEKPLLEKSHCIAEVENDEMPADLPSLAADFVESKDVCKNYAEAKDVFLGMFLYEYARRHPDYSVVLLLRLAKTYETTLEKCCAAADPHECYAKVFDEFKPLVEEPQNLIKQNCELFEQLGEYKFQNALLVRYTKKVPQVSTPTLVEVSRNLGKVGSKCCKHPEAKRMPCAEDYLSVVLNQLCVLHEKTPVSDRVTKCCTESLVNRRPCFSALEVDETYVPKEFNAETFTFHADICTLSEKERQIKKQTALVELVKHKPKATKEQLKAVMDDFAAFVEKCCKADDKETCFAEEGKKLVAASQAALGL

T1 sequence (P02787 20-698): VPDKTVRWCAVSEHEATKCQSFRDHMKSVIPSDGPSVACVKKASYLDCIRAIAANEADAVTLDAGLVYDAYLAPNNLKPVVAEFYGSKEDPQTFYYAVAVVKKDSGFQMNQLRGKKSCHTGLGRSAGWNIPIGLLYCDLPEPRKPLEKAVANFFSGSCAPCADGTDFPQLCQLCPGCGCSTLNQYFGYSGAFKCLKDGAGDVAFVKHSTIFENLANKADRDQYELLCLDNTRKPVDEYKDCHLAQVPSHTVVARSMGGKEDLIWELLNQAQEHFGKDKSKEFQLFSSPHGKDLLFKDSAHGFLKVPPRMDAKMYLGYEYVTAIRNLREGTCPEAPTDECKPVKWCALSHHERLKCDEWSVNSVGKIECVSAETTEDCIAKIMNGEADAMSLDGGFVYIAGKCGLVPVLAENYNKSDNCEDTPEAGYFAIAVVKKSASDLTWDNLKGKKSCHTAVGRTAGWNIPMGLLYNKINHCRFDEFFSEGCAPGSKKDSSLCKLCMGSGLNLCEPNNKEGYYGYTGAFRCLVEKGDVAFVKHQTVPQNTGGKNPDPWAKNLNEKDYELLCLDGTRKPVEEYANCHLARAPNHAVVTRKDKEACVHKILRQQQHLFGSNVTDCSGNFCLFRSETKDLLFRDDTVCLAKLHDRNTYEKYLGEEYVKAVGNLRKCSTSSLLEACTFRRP

Kd (transferrin) [µM]	Kd (human serum albumin) [µM]	Structure (SMILES)
380	791	N=c1ccc2c(-c3ccc(C(=O)O)cc3C(=O)O)c3ccc(N)c(S(=O)(=O)O)c3oc-2c1S(=O)(=O)O [Alexa Fluor 488]
46.1	44.8	CN1/C(=C/C=C/C=C/C2=[N+](CCCCCC(=O)O)c3ccccc3C2(C)C)C(C)(C)c2ccccc21 [Cy5]
502	138	O=C(O)c1ccccc1-c1c2ccc(=O)cc-2oc2cc(O)ccc12 [fluorescein]
2020	568	CN1/C(=C/C=C/C=C/C2=[N+](CCCCCC(=O)O)c3ccc(S(=O)(=O)O)cc3C2(C)C)C(C)(C)c2cc(S(=O)(=O)O)ccc21 [sCy5]
